Bounds are passed on as bounds.

The values below come from patent EP2970215B1, “PYRROLIDINE DERIVATIVES, PHARMACEUTICAL COMPOSITIONS CONTAINING THEM, AND THEIR USE IN THERAPY” (AbbVie Deutschland GmbH & Co. KG, priority 2013, dated 2014).

In this assay the target is T1, human GlyT1c transporter (Homo sapiens, UniProt P48067).
T1 construct: expressed in transfected cells; host or cells: CHO cells (recombinant; line hGlyT1c_5_CHO is named for the uptake assay)
T1 sequence (P48067 1-706): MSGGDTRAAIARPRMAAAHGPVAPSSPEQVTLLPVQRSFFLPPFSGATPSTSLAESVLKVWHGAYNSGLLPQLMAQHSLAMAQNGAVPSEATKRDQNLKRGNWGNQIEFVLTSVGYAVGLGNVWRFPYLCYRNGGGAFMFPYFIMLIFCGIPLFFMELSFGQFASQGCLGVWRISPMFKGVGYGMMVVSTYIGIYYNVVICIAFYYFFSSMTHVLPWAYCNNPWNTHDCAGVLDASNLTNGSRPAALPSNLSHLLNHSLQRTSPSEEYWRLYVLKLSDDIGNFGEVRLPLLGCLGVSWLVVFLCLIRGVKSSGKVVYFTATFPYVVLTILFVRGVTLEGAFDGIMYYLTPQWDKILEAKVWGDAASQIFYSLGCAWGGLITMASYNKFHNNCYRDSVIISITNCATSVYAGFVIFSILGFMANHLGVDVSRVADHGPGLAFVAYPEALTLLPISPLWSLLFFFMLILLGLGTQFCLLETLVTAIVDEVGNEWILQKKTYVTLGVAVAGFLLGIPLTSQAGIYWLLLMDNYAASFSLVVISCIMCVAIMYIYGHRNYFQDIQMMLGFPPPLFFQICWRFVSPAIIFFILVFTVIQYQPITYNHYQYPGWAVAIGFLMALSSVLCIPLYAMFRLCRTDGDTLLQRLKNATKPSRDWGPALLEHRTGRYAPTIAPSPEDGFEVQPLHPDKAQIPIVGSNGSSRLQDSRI
The assay can be described thus: Radioligand binding assay using recombinant CHO cell membranes expressing human GlyT1. Conditions: radioligand binding to human GlyT1c transporter-expressing membranes. The text has this:
2. Radioligand binding assays using recombinant CHO cell membranes expressing human GlyT1: […]
Take `Cn1cnc(S(=O)(=O)N2C[C@@H](NCc3cccc(F)c3)[C@H](c3ccc(F)cc3)C2)c1` (relative stereo) [Example 264, trans-N-(3-fluorobenzyl)-4-(4-fluorophenyl)-1-[(1-methyl-1H-imidazol-4-yl)sulfonyl]pyrrolidin-3-amine]: the Ki (commonly a measure of affinity in units of concentration, obtained from inhibition or displacement) is no more than 1000 nM.
Consider `CCCC(F)(F)CN[C@H]1CN(S(=O)(=O)c2cn(C)cn2)C[C@@H]1c1ccc(F)cc1` [Example 734, (3R,4S)-N-(2,2-difluoropentyl)-4-(4-fluorophenyl)-1-[(1-methyl-1H-imidazol-4-yl)sulfonyl]pyrrolidin-3-amine], for which the Ki was no more than 100 nM.
Take `Cn1cnc(S(=O)(=O)N2C[C@H](Nc3cc(OCc4ccccc4)c(F)cn3)[C@@H](c3ccccc3)C2)c1` [Example 776, 4-(benzyloxy)-5-fluoro-N-{(3R,4S)-1-[(1-methyl-1H-imidazol-4-yl)sulfonyl]-4-phenylpyrrolidin-3-yl}pyridin-2-amine]: the Ki was no more than 10 nM.
On to `Cn1cnc(S(=O)(=O)N2C[C@@H](Nc3cncc(C(F)(F)F)c3)[C@H](c3cccc(F)c3)C2)c1` (relative stereo) [Example 196, N-{trans-4-(3-fluorophenyl)-1-[(1-methyl-1H-imidazol-4-yl)sulfonyl]pyrrolidin-3-yl}-5-(trifluoromethyl)pyridin-3-amine], for which the Ki was no more than 10000 nM.
Turning to `Cn1cnc(S(=O)(=O)N2C[C@@H](Nc3cccc(OCC(F)(F)F)c3)[C@H](c3ncccc3F)C2)c1` (relative stereo) [Example 800, Trans-4-(3-fluoropyridin-2-yl)-1-[(1-methyl-1H-imidazol-4-yl)sulfonyl]-N-[3-(2,2,2-trifluoroethoxy)phenyl]pyrrolidin-3-amine], the Ki was no more than 10 nM.
The same measure for `COC(=O)CCCC(=O)N[C@H]1CN(S(=O)(=O)c2cn(C)cn2)C[C@@H]1c1ccc(F)cc1` [Example 662, methyl 5-({(3R,4S)-4-(4-fluorophenyl)-1-[(1-methyl-1H-imidazol-4-yl)sulfonyl]pyrrolidin-3-yl}amino)-5-oxopentanoate]: no more than 10000 nM; for `Cn1cnc(S(=O)(=O)N2C[C@@H](Nc3ccc(F)cc3)[C@H](c3ccccc3)C2)c1` (relative stereo) [Example 71, trans-N-(4-fluorophenyl)-1-[(1-methyl-1H-imidazol-4-yl)sulfonyl]-4-phenylpyrrolidin-3-amine]: no more than 1000 nM; for `CC(C)c1cccc(N[C@@H]2CN(S(=O)(=O)c3cn(C)cn3)C[C@H]2c2ccc(F)cc2)c1` (relative stereo) [Example 170, trans-4-(4-fluorophenyl)-1-[(1-methyl-1H-imidazol-4-yl)sulfonyl]-N-[3-(propan-2-yl)phenyl]pyrrolidin-3-amine]: no more than 100 nM.
Consider `Cc1csc(S(=O)(=O)N2CC(Nc3ccc(F)c(F)c3)C(c3ccccc3)C2)c1` (stereo not drawn) [Example 484, N-(3,4-difluorophenyl)-1-[(4-methylthiophen-2-yl)sulfonyl]-4-phenylpyrrolidin-3-amine], for which the Ki was no more than 10000 nM.
`Cc1cccc(N[C@@H]2CN(S(=O)(=O)c3cn(C)cn3)C[C@H]2C2CCCOC2)c1` (relative stereo) [Example 781, trans-1-[(1-methyl-1H-imidazol-4-yl)sulfonyl]-N-(3-methylphenyl)-4-(tetrahydro-2H-pyran-3-yl)pyrrolidin-3-amine]: the Ki was no more than 10000 nM.
Under `Cc1nc(CN[C@H]2CN(S(=O)(=O)c3cn(C)cn3)C[C@@H]2c2ccccc2)cs1` [Example 533, (3R,4S)-1-[(1-methyl-1H-imidazol-4-yl)sulfonyl]-N-[(2-methyl-1,3-thiazol-4-yl)methyl]-4-phenylpyrrolidin-3-amine] stands no more than 10000 nM; under `N#Cc1ccccc1S(=O)(=O)N1C[C@@H](Nc2ccc(F)cc2)[C@H](c2ccccc2)C1` (relative stereo) [Example 529, 2-({Trans-3-[(4-fluorophenyl)amino]-4-phenylpyrrolidin-1-yl}sulfonyl)benzonitrile], no more than 10000 nM.
Take `Cn1cnc(S(=O)(=O)N2C[C@@H](C(=O)c3ccc(F)c(F)c3)[C@H](c3ccc(F)cc3)C2)c1` (relative stereo) [Example 357, (3,4-Difluorophenyl){trans-4-(4-fluorophenyl)-1-[(1-methyl-1H-imidazol-4-yl)sulfonyl]pyrrolidin-3-yl}methanone]: the Ki is no more than 1000 nM.
In the case of `Cc1c(S(=O)(=O)N2CC(Nc3ccc(F)c(F)c3)C(c3ccccc3)C2)cnn1C` (stereo not drawn) [Example 483, N-(3,4-difluorophenyl)-1-[(1,5-dimethyl-1H-pyrazol-4-yl)sulfonyl]-4-phenylpyrrolidin-3-amine], the Ki is no more than 10000 nM.
Under `Cn1cnc(S(=O)(=O)N2C[C@@H](Nc3nccc(C(F)(F)F)n3)[C@H](c3ccccc3)C2)c1` (relative stereo) [Example 227, N-{trans-1-[(1-methyl-1H-imidazol-4-yl)sulfonyl]-4-phenylpyrrolidin-3-yl}-4-(trifluoromethyl)pyrimidin-2-amine] stands no more than 10000 nM; under `CCCC1CC1CN[C@H]1CN(S(=O)(=O)c2cn(C)cn2)C[C@@H]1c1ccccc1` (stereo partly drawn) [Example 650, (3R,4S)-1-[(1-methyl-1H-imidazol-4-yl)sulfonyl]-4-phenyl-N-[(2-propylcyclopropyl)methyl]pyrrolidin-3-amine], no more than 1000 nM; under `Cn1cnc(S(=O)(=O)N2C[C@H](NC(=O)C3CCC(C(F)(F)F)CC3)[C@@H](c3ccc(F)cc3)C2)c1` (stereo partly drawn) [Example 696, N-{(3R,4S)-4-(4-fluorophenyl)-1-[(1-methyl-1H-imidazol-4-yl)sulfonyl]pyrrolidin-3-yl}-4-(trifluoromethyl)cyclohexanecarboxamide], no more than 10000 nM.
For the molecule `Cn1cnc(S(=O)(=O)N2C[C@@H](Nc3cccc(C(F)(F)F)c3F)[C@H](c3ccc(F)cc3)C2)c1` (relative stereo) [Example 167, trans-4-(4-fluorophenyl)-N-[2-fluoro-3-(trifluoromethyl)phenyl]-1-[(1-methyl-1H-imidazol-4-yl)sulfonyl]pyrrolidin-3-amine], the Ki is no more than 100 nM.
With `Cn1cnc(S(=O)(=O)N2C[C@H](Nc3cc(F)ccn3)[C@@H](c3ccccc3)C2)c1` [Example 405, 4-fluoro-N-{(3R,4S)-1-[(1-methyl-1H-imidazol-4-yl)sulfonyl]-4-phenylpyrrolidin-3-yl}pyridin-2-amine], the Ki is no more than 1000 nM.
Turning to `Cn1cnc(S(=O)(=O)N2C[C@@H](Nc3ccc(F)c(Cl)c3)[C@H](c3ccc(F)cc3)C2)c1` [Example 387, (3S,4R)-N-(3-chloro-4-fluorophenyl)-4-(4-fluorophenyl)-1-[(1-methyl-1H-imidazol-4-yl)sulfonyl]pyrrolidin-3-amine], the Ki is no more than 10000 nM.
Take `Cn1cnc(S(=O)(=O)N2C[C@@H](C(=O)NCc3ccc(F)cc3)[C@H](c3ccc(F)cc3)C2)c1` (relative stereo) [Example 630, Trans-N-(4-fluorobenzyl)-4-(4-fluorophenyl)-1-[(1-methyl-1H-imidazol-4-yl)sulfonyl]pyrrolidine-3-carboxamide]: the Ki was no more than 100 nM.
For `Cn1cnc(S(=O)(=O)N2C[C@@H](Nc3ccc(Cl)c(C(F)(F)F)c3)[C@H](c3ccc(F)cc3)C2)c1` (relative stereo) [Example 172, trans-N-[4-chloro-3-(trifluoromethyl)phenyl]-4-(4-fluorophenyl)-1-[(1-methyl-1H-imidazol-4-yl)sulfonyl]pyrrolidin-3-amine], the Ki is no more than 100 nM.
The same measure for `Cc1nc(N[C@H]2CN(S(=O)(=O)c3cn(C)cn3)C[C@@H]2c2ccc(F)cc2)cc(C(F)(F)F)n1` [Example 615, N-{(3R,4S)-4-(4-fluorophenyl)-1-[(1-methyl-1H-imidazol-4-yl)sulfonyl]pyrrolidin-3-yl}-2-methyl-6-(trifluoromethyl)pyrimidin-4-amine]: no more than 1000 nM; for `Cn1cnc(S(=O)(=O)N2C[C@@H](CNc3ccc(F)cc3)[C@H](c3ccc(F)cc3)C2)c1` (relative stereo) [Example 367, 4-Fluoro-N-({trans-4-(4-fluorophenyl)-1-[(1-methyl-1H-imidazol-4-yl)sulfonyl]pyrrolidin-3-yl}methyl)aniline]: no more than 100 nM; for `Cc1cccc(N[C@@H]2CN(S(=O)(=O)c3cn(C)cn3)C[C@H]2c2ccccc2)c1` (relative stereo) [Example 58, trans-1-[(1-methyl-1H-imidazol-4-yl)sulfonyl]-N-(3-methylphenyl)-4-phenylpyrrolidin-3-amine]: no more than 100 nM.
`CC(C)OCCCNC[C@@H]1CN(S(=O)(=O)c2cn(C)cn2)C[C@H]1c1ccc(F)cc1` (relative stereo) [Example 591, N-({trans-4-(4-fluorophenyl)-1-[(1-methyl-1H-imidazol-4-yl)sulfonyl]pyrrolidin-3-yl}methyl)-3-(propan-2-yloxy)propan-1-amine]: the Ki is no more than 10000 nM.
Consider `Cn1cnc(S(=O)(=O)N2C[C@H](Nc3ccc4sccc4c3)[C@@H](c3ccccc3)C2)c1` [Example 654, (3R,4S)-N-(1-benzothiophen-5-yl)-1-[(1-methyl-1H-imidazol-4-yl)sulfonyl]-4-phenylpyrrolidin-3-amine], for which the Ki was no more than 1000 nM.
